# Test results from US5561149A, “Use of certain imidazol carbazols in treating stress-related manic-depressive disorders” (priority 1986, dated 1996).
# Like-named read-outs stand apart in the source and are kept apart here.
# Tests used:
# [1] = tested on: mice (approach-oriented behaviour); assay: Approach-oriented behaviour in mice in stress-situations; type: in vivo, mouse; conditions: for approach-oriented social behaviours: food deprived mice under white light; for effect on promoting social interaction under stress related conditions: mouse, in vivo
# Protocol: Trials have been carried out on the effects of the compounds of the invention on approach-oriented behaviour in mice. The compounds increase approach-oriented behaviour in stress-situations normally inhibitory to social responses. Thus situations involving unfamiliar surroundings, contact with foreign aggressive opponents, competition for food, were created under reversed lighting conditions whereby observations were performed during the darkphase. Under these conditions, untreated rodents exihibit high levels of flight, particularly depressive ambivalence and escape behaviour, but low levels of social behaviour involving approach activity.
# [2] = tested on: male OF-1 mice (social interactions and feeding); assay: Competitive feeding, Study C; type: in vivo, mouse
# Protocol: In this test 8 pairs of male OF-1 mice deprived of food for 6 hours are forced to compete over 6 minutes for a single food pellet. […]
# [3] = tested on: mice (stretched attend postures); conditions: H. P. Kasermann, Psychopharmacology 1986, 89, 31-37; cited from earlier work
# [4] = Bioavailability and pharmacokinetic profile after nasal / oral administration; type: in vivo, mammals including rhesus monkeys and humans; conditions: plasma; ca. 5 to 10 minutes following nasal administration
# Protocol: The bioavailability and pharmacokinetic profile of the compounds of the invention may be determined in conventional manner, e.g. in mammals including rhesus monkeys and humans. The concentrations of the compounds of the invention in the blood plasma after administration of from about 0.01 to about 10 mg/kg to each nostril, e.g. 7.5 mg in the case of compound E, locally to the nasal mucous membrane, e.g. as a spray, may be determined in conventional manner by e.g. radioimmunoassay or HPLC methods. The compounds of the invention are rapidly absorbed, e.g. over about 10 minutes.
# 5-HT3 receptors [5] = conditions: rabbit vagus; P. Donatsch et al., Br.j. Pharmacol. 1984, 81,348; cited from earlier work
# [6] = tested on: intruder mice (social behaviour); assay: Intruder test, Study A; type: in vivo, mouse; conditions: 1 mg/kg p.o., 1 hour before the encounter
# Protocol: A foreign male mouse (intruder), placed for 6 minutes, into the cage of an isolated male is attacked and responds with defensive escape patterns collectively known as "flight". Flight and associated defensive activities over-ride the intruder's tendency to approach the attacker so that much of the behaviour includes social forms of ambivalence.
# Intruders receiving oral doses of benzodiazepines show less of these defensive activities and more approach-oriented behaviour (A. K. Dixon Triangle 1982, 21, 95-105; M. Krisak, Br. J. Pharmacol 1975, 55, 141-150), e.g. investigation, aggression and sexual activity.
# The compounds of the invention are administered 1 hour before the encounter per-orally at from about 0.1 to about 10 mg/kg. Groups of 8 mice pairs are used. The frequency and duration of social and non-social behaviour of the mice were recorded using ethological techniques.
# [7] = tested on: intruder mice (approach-oriented social activities); assay: Intruder test, Study B (large cage); type: in vivo, mouse; conditions: for escape behaviour: single compounds: 1 microgram/kg, in general about 0.01 to about 100 microgram/kg i.p.
# Protocol: Study A was modified using a large cage (59×38.5×20 cm) which allowed greater freedom of movement so that elements of defense could be separated more clearly from the approach-oriented social activities. The compounds of the invention were given i.p. at doses from about 0.01 to about 100 microgram/kg 45 minutes before the encounter.
# Indruders received the drug. […] In this test at a dose of 1 microgram/kg compound E promoted 8 elements of approach oriented social activities by about 40 per cent. […] Compound H at the same dose promoted 3 elements of approach-oriented social activities by about 40 per cent.
# 5-HT3 receptors [8] = conditions: rabbit heart; P. Donatsch et al., Br.j. Pharmacol. 1984, 81,348; cited from earlier work
# plasma corticosterone = assay: Corticosterone levels (Endocrinological profile); type: in vivo, mouse; conditions: reduction at high, increase of basal levels at low doses
# [9] = 26 week toxicity study in the dog; conditions: in vivo, po, 26 weeks, read-out: no toxic effect bowel (dose), dog
# Source text: (§1) Toxicity and Tolerability studies may be effected in conventional manner with the compounds of the invention to determine the upper dosage.
# (§2) Toxicity studies may be effected for example in the rat and the dog over for example 26 weeks.
# [10] = 26 week toxicity study in the rat; conditions: in vivo, po, 26 weeks, read-out: no toxic effect (dose), rat
# Source text: as §1, §2
# 5-HT3 receptors [11] = conditions: guinea pig ileum; P. Donatsch et al., Br.j. Pharmacol. 1984, 81,348; cited from earlier work
# healthy human volunteers = assay: Tolerability in healthy human volunteers; type: in vivo; conditions: single doses
# Source text: as §1
# [12] = tested on: mice (stretched attend postures); assay: Stretched Attend Postures (SAP) (No conflict); type: in vivo, mouse; conditions: doses higher than 0.1 mg/kg
# Protocol: Mice placed upon an unfamiliar elevated platform in a novel environment display characteristic stretched body postures called SAP's which signify amibivalence.
# The compounds of the invention administered p.o. at a dose of from about 0.1 to about 10 mg/kg. 2 hours before the test reduce the duration of SAP when placed on the platform for 2 minutes under conditions where no other mice are present.
# [13] = Bioavailability of co-administered peptide (salmon calcitonin) on nasal administration; type: in vivo; conditions: rhesus monkey
# Protocol: Additionally, the compounds of the invention when administered, e.g. at a dose of from 0.01 to 10 mg/kg with a therapeutically effective dosage of another compound, e.g. a peptide, such as salmon calcitonin increases the absorption thereof.
# [14] = 0.1 mg/kg p.o., 2 hours before the encounter
compound,measurement,setting,value
CC(NC(C)(C)C)C(=O)c1cccc(Cl)c1 (stereo not shown) [bupropion],approach-oriented social behaviours,[1],increase approach-oriented social behaviours
same,effect on promoting social interaction under stress related conditions,[1],pronounced effect
same,increase in mean frequency of social interactions,"[2]; 2.5 mg/kg, competitive feeding experiment study c)",179 per cent
O=C1CC2(CCCC2)CC(=O)N1CCCCN1CCN(c2ncccn2)CC1 [buspirone],incidence of SAP's,[3],reduce the incidence of SAP's
"CN1[C@@H]2CC[C@H]1C[C@@H](OC(=O)c1c[nH]c3ccccc13)C2 [compound E, Indol-3-yl carboxylic acid endo-8-methyl-8-aza-bicyclo-[3.2.1]oct-3-yl ester]",effect on promoting social interaction under stress related conditions,[1],pronounced effect
same,concentration at 10 min,[4],200 ng/mL
same,antagonistic action against 5-HT3 receptors,5-HT3 receptors [5],antagonistic action
same,frequency of social inter-action,[6]; increased from ca 60,~80
same,duration of social inter-action,[6]; increased from ca 90,~120 s
same,promotion of 8 elements of approach oriented social activities,"[7]; 1 microgram/kg i.p., 45 minutes before the encounter, 8 elements",about 40 per cent
same,escape behaviour,[7],reduced escape behaviour
same,antagonistic action against 5-HT3 receptors,5-HT3 receptors [8],antagonistic action
same,corticosterone profile compared with diazepam,plasma corticosterone,analogous to that observed with diazepam
same,NOAEL at 4368 h,[9],5 to 20 mg/kg/day
same,NOAEL at 4368 h,[10],16 to 45 mg/kg/day
same,antagonistic action against 5-HT3 receptors,5-HT3 receptors [11],antagonistic action
same,well tolerated single dose without relevant side effects,healthy human volunteers,up to 150 mg
same,increase in mean frequency of social interactions,"[2]; 0.01 mg/kg, competitive feeding experiment study c)",54 per cent
same,increase in duration of feeding,[2]; [14],55 per cent
same,increase in duration of social interactions relative to controls,[2]; [14],321 per cent
same,increase in frequency of feeding,[2]; [14],4 per cent
same,increase in frequency of social interactions relative to controls,[2]; [14],54%
same,effect on SAP at higher doses,[12],the effect was less
"Cc1nccn1CC1CCc2c(c3ccccc3n2C)C1=O (stereo not shown) [compound H, 1,2,3,9-tetrahydro-9-methyl-3-[(2-methyl-1H-imidazol-1-yl)methyl]-4H-carbazol-4-one]",promotion of 3 elements of approach-oriented social activities,"[7]; 1 microgram/kg i.p., 45 minutes before the encounter, 3 elements",about 40 per cent
same,cage exploratory behaviour,"[7]; 1 microgram/kg i.p., indicative of a stimulant effect",increase cage exploratory behaviour
same,escape behaviour,[7],effect on escape behaviour was less
CN1C(=O)CN=C(c2ccccc2)c2cc(Cl)ccc21 [diazepam],ambivalent behaviour,"[1]; reversed lighting, darkphase, stress-situations",reduce the ambivalent behaviour
same,social behaviour / approach-oriented behaviour in stress-situations,"[1]; reversed lighting, darkphase, stress-situations normally inhibitory to social responses",can increase social behaviour
CN(C)CCCN1c2ccccc2CCc2ccccc21 [impramine],approach-oriented social behaviours,[1],increase approach-oriented social behaviours
salmon calcitonin,"bioavailability of salmon calcitonin (AUC up to 2 hours), with compound E","[13]; salmon calcitonin 100 IU + compound E 15 mg, half to each nostril",1.632 m IU/ml/hr/plasma
same,"bioavailability of salmon calcitonin (AUC up to 2 hours), before increase by compound E","[13]; salmon calcitonin 100 IU nasal, without compound E",0.08 mIU/ml/hr
